According to patent publication US20030232114A1, “Method for liquid enrichment with oxygen and applications of enriched liquids” (priority 2002, published 2003):

Test system: rats having a myocardial infarction due to a restriction of the coronaries
Assay: Oxygen consumption in damaged tissues of rats with myocardial infarction (acute occlusion of blood vessels)
Assay type: in vivo
Conditions: conventional oxygen treatment by inhalation by means of a cannula, monitored for five days
Experimental: The oxygen enriched solutions of the invention were tested on experimental animals subjected to an acute occlusion of blood vessels which provoked degenerative changes of the interested tissues.
An oxygen enriched physiological solution of 0.3 cc having an oxygen partial pressure of 2 bar was intravenously administered at a rate of 1 g/min twice a days to a first group of 5 rats having a myocardial infarction due to a restriction of the coronaries. A second group of rats with the same disease, was subjected to a conventional oxygen treatment by inhalation by means of a cannula.
The results of the treatment were monitored and scheduled for five days. The first group of animals, treated by administering a solution in accordance with an embodiment of the present invention consumed 20% of oxygen in the damaged tissues whereas the second group which received the oxygen by inhalation consumed only 5% of oxygen in the damaged tissues.

## O=O [oxygen]
  oxygen consumed in the damaged tissues: 5%
